Test: Solubility in double distilled water
Format: physicochemical

Substance: Disperse Blue 56
- solubility in double distilled water: about 14 mg/l

Source: EP4026700A1, “INPRINTING” (Smart Coloring GmbH, priority 2021, dated 2022)
